From US11504385B2, “Proteolysis targeting chimeric molecule, preparation method, and application” (CHINA PHARMACEUTICAL UNIVERSITY, priority 2019, dated 2022)

Columns and labels:
ABL = molecular target: T1, ABL (Homo sapiens, UniProt P00519); test: Immunoblotting, degradation of ABL protein in K562 cells; type: cell-based; conditions: 100 nM, 36 hours after administration
T1 construct: degradation effect of the compound 4C on c-ABL and BCR-ABL proteins in K562 cells; endogenous in cells; host or cells: K562
T1 sequence (P00519 whole entry): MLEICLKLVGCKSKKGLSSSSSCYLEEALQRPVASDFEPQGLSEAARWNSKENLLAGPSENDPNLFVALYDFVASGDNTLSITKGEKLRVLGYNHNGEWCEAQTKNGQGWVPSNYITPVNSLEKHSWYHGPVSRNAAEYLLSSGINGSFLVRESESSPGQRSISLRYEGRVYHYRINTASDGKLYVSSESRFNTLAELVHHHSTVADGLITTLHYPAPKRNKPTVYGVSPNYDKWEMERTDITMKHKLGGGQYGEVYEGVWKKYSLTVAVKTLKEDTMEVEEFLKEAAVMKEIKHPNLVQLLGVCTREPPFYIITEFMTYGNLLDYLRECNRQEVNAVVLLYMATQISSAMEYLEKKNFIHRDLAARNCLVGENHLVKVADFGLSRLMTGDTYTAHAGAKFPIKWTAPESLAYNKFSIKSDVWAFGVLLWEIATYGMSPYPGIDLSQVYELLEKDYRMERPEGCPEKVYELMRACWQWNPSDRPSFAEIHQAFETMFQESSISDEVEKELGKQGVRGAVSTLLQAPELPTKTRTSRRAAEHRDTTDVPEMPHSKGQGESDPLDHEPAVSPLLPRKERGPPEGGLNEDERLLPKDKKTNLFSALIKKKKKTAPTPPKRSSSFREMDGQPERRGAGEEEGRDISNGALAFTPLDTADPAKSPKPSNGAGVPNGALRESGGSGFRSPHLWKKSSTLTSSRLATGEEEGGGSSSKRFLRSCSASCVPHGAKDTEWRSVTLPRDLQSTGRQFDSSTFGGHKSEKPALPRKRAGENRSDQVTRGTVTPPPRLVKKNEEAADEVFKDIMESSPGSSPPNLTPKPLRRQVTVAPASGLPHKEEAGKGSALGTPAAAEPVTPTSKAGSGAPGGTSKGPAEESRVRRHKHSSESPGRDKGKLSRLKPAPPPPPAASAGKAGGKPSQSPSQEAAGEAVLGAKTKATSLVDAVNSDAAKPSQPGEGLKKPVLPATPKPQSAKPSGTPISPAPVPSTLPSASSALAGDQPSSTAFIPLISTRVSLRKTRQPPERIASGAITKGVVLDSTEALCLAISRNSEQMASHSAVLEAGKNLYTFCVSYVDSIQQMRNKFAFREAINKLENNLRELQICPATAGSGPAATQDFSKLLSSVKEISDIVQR
Procedure: (§1) Initially, researchers synthesized a 2C compound (FIG. 2A), which is a small molecule with the shortest joining chain (n=1). By using BCR-ABL and CRBN positive K562 cell lines, degradation of ABL and BCR-ABL proteins in the cells under the action of the compound was tested by immunoblotting. […] Then, the researchers tried to extend the joining chain (increasing the value of n).
(§2) In order to test the degradation effect of the compound 4C on c-ABL and BCR-ABL proteins in K562 cells, the researchers performed an immunoblotting experiment. […] In order to exclude the possibility that the compound 4C affected the ABL gene to generate false positive expression, the researchers used RT-qPCR in K562 cells to study the expression of the ABL gene.
The operation method of the immunoblotting experiment is as follows:
K562 cells after administration were incubated for 24 hours.
(§3) The medium was aspirated from the culture; the cells were washed with 1*PBS; and the cells were aspirated.
(§4) A weak RIPA lysate (100 μL) was added to lyse the cells for 40 min.
(§5) The sample was centrifuged at 13000 rpm, 4° C. for 15 min; 80 μl of supernatant was taken and added to 20 μl of loading buffer; the reaction solution was heated at 100° C. for 8 minutes; and the sample was placed on ice and cooled.
(§6) […] of sample was loaded on 10% SDS-PAGE gel. The sample was transferred to a PVDF membrane by a wet process.
(§7) A membrane was placed in 25 ml of blocking buffer and blocked at room temperature for 1 hour.
(§8) The membrane and the primary antibody (according to the appropriate dilution and diluent recommended in the product description) were placed in 10 ml of primary antibody dilution buffer, and incubated overnight at 4° C. and gently shaken from time to time.
(§9) Anti-rabbit IgG, HRP-linked Antibody (#7074, in a ratio of 1:2000) and anti-biotin, HRP-linked Antibody (#7075, in a ratio of 1:1000-1:3000) are diluted with 10 ml of blocking buffer to detect biotinylated protein standards. The membrane was incubated with the diluent, and gently shaken and incubated at room temperature for 1 hour.
(§10) A developer solution and the membrane were incubated together for 1 minute, the excess solution was discarded (the membrane remained moist) and the membrane was exposed.
(§11) Next, we tested the difference in the activity of different configurations of compound 4C in degradation of ABL and BCR-ABL proteins. […] The operation method of the immunoblotting experiment is the same as above.

BCR-ABL fusion protein = molecular target: T2, BCR-ABL fusion protein (Homo sapiens, UniProt P00519+P11274+Q96SW2, E27K); test: Immunoblotting, degradation of BCR-ABL protein in K562 cells; type: cell-based; conditions: for inhibition of expression of BCR-ABL and/or CRBN protein: BCR-ABL and/or CRBN positive leukemia K562 cells, to varying degrees
T2 construct: By using BCR-ABL and CRBN positive K562 cell lines; endogenous in cells; host or cells: K562
Procedure: as §1, §2
The operation method of the immunoblotting experiment is as follows: […]
as §3, §4, §5, §6, §7, §8, §9, §10, §11

level of the ABL protein (WB) (ABL) | inhibition of expression of BCR-ABL and/or CRBN protein (BCR-ABL fusion protein) | level of BCR-ABL fusion protein (WB) (BCR-ABL fusion protein; K562 cells, 100 nM, 36 hours after administration) | Compound | level of the BCR-ABL protein (WB) (BCR-ABL fusion protein; K562 cells, 36 hours after administration, dose-effect)
significantly reduced | can inhibit the expression | significantly reduced | Cc1nc(Nc2ncc(C(=O)Nc3c(C)cccc3Cl)s2)cc(N2CCN(CCOc3ccc(/N=N/c4ccc(C(=O)Nc5cccc6c5CN(C5CCC(=O)NC5=O)C6=O)cc4)cc3)CC2)n1 (stereo not shown) [Compound 2C, (E)-N-(2-chloro-6-methylphenyl)-2-((6-(4-(2-(4-((4-((2-(2,6-dioxopiperidin-3-yl)-1-oxoisoindolin-4-yl)carbamoyl)phenyl)diazenyl)phenoxy)ethyl)piperazin-1-yl)-2-methylpyrimidin-4-yl)amino)thiazole-5-carboxamide] | down-regulate the level of the BCR-ABL protein in a dose-dependent manner
– | can inhibit the expression | – | Cc1nc(Nc2ncc(C(=O)Nc3c(C)cccc3Cl)s2)cc(N2CCN(CCCOc3ccc(/N=N/c4ccc(C(=O)Nc5cccc6c5CN(C5CCC(=O)NC5=O)C6=O)cc4)cc3)CC2)n1 (stereo not shown) [Compound 3C, (E)-N-(2-chloro-6-methylphenyl)-2-((6-(4-(3-(4-((4-((2-(2,6-dioxopiperidin-3-yl)-1-oxoisoindolin-4-yl)carbamoyl)phenyl)diazenyl)phenoxy)propyl)piperazin-1-yl)-2-methylpyrimidin-4-yl)amino)thiazole-5-carboxamide] | –
– | can inhibit the expression | – | Cc1nc(Nc2ncc(C(=O)Nc3c(C)cccc3Cl)s2)cc(N2CCN(CCCCCOc3ccc(/N=N/c4ccc(C(=O)Nc5cccc6c5CN(C5CCC(=O)NC5=O)C6=O)cc4)cc3)CC2)n1 (stereo not shown) [Compound 5C, (E)-N-(2-chloro-6-methylphenyl)-2-((6-(4-(5-(4-((4-((2-(2,6-dioxopiperidin-3-yl)-1-oxoisoindolin-4-yl)carbamoyl)phenyl)diazenyl)phenoxy)pentyl)piperazin-1-yl)-2-methylpyrimidin-4-yl)amino)thiazole-5-carboxamide] | –
– | can inhibit the expression | – | Cc1nc(Nc2ncc(C(=O)Nc3c(C)cccc3Cl)s2)cc(N2CCN(CCCCCCOc3ccc(/N=N/c4ccc(C(=O)Nc5cccc6c5CN(C5CCC(=O)NC5=O)C6=O)cc4)cc3)CC2)n1 (stereo not shown) [Compound 6C, (E)-N-(2-chloro-6-methylphenyl)-2-((6-(4-(6-(4-((4-((2-(2,6-dioxopiperidin-3-yl)-1-oxoisoindolin-4-yl)carbamoyl)phenyl)diazenyl)phenoxy)hexyl)piperazin-1-yl)-2-methylpyrimidin-4-yl)amino)thiazole-5-carboxamide] | –
